In PubChem BioAssay (NCI):
Several values for one entry are separate records, joined by “and”; a condition that tells them apart may be missing. Identical values can stand only once.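 Five concentrations, 48 hours, 96-well plates. At the GI50, growth is halved. TGI: concentration producing complete growth inhibition.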

How the values were obtained:
Assay in all cases: DTP human tumour cell line panel, 48 h
[1] = tested on: OVCAR-8 ovarian
[2] = tested on: LOX IMVI melanoma
[3] = tested on: MDA-MB-231 breast
[4] = tested on: CAKI-1 renal
[5] = tested on: SK-MEL-2 melanoma
[6] = tested on: NCI-H226 lung
[7] = tested on: SNB-19 CNS
[8] = tested on: SK-MEL-28 melanoma
[9] = tested on: A498 renal
[10] = tested on: HCC-2998 colon

Cc1nc2ccccc2c(/C=C/c2ccc(Cl)cc2)c1C(=O)/C=C/c1ccc(C(F)(F)F)cc1
GI50 [1]: 0.433 µM | TGI [1]: 2.2 µM | GI50 [2]: 0.181 µM | TGI [2]: 0.361 µM | GI50 [3]: 0.301 µM | TGI [3]: 0.947 µM | GI50 [4]: 0.386 µM | TGI [4]: 1.52 µM | GI50 [5]: 0.627 µM | TGI [5]: 2.17 µM | GI50 [6]: 0.306 µM | TGI [6]: 0.911 µM | GI50 [7]: 0.722 µM | TGI [7]: 1.97 µM | GI50 [8]: 0.369 µM | TGI [8]: 1.29 µM | GI50 [9]: 1.32 µM | TGI [9]: 2.62 µM | GI50 [10]: 0.393 µM | TGI [10]: 1.35 µM

CC(C)=CCC/C(C)=C/CC/C(C)=C/CSc1ccccc1C(=O)O
GI50 [1]: 23.9 µM | TGI [1]: > 65.5 µM and 36.6 µM | GI50 [2]: 26.6 µM | TGI [2]: > 68.5 µM and 35.4 µM | GI50 [3]: 28.3 µM | TGI [3]: 61.7 µM and 55.8 µM | GI50 [4]: 28.1 µM | TGI [4]: 71.6 µM and 38.3 µM | GI50 [5]: 22.6 µM | TGI [5]: 45.4 µM and 29.4 µM | GI50 [6]: 19.9 µM | TGI [6]: 46.2 µM and 44.1 µM | GI50 [7]: 39.7 µM | TGI [7]: > 100 µM and 41.1 µM | GI50 [8]: 25.7 µM | TGI [8]: 62 µM and 54.3 µM | GI50 [9]: 21.3 µM | TGI [9]: 54.6 µM and 56.7 µM | GI50 [10]: 28.9 µM | TGI [10]: 92.4 µM and 33.6 µM

COCc1cc(C(=O)Nc2cc([C@H]3CC[C@@H](OC(=O)NC(C)C)C3)[nH]n2)n(C)n1
GI50 [1]: 10.9 µM | TGI [1]: > 100 µM | GI50 [2]: 4.15 µM | TGI [2]: 75.5 µM | GI50 [3]: 16.6 µM | TGI [3]: 91.1 µM | GI50 [4]: 3.64 µM | TGI [4]: 95.3 µM | GI50 [5]: 10.6 µM | TGI [5]: 27.2 µM | GI50 [6]: 5.63 µM | TGI [6]: 76.5 µM | GI50 [7]: 12.7 µM | TGI [7]: > 100 µM | GI50 [8]: 14.9 µM | TGI [8]: 85 µM | GI50 [9]: 11.4 µM | TGI [9]: 34.5 µM | GI50 [10]: 5.39 µM | TGI [10]: 48.2 µM

COc1ccc2ccccc2c1C1NC(=O)c2ccccc2N1 (stereo not given)
TGI [1]: 31.8 µM | TGI [2]: 65.2 µM | TGI [3]: > 41.8 µM | TGI [4]: > 85.2 µM | TGI [5]: > 100 µM | TGI [6]: 13.4 µM | TGI [7]: > 100 µM | TGI [8]: > 100 µM | TGI [9]: 8.42 µM | TGI [10]: 5.92 µM

C/C1=C/C(=O)O[C@@H]2C[C@@H](CC[C@H](C)/C=C\C=C\CC1)O[C@@](O)([C@@H]1CSC(=O)N1)C2
TGI [1]: > 10 µM | TGI [2]: > 3.88 µM | TGI [3]: > 2.65 µM | TGI [4]: 0.619 µM | TGI [5]: > 10 µM | TGI [6]: > 2.9 µM | TGI [7]: > 7.89 µM | TGI [8]: 5.41 µM | TGI [9]: 0.358 µM | TGI [10]: > 10 µM

C=CC(=O)Nc1cc(C)ccc1Nc1nc(Nc2cc(OC)ncc2C)ncc1C(F)(F)F
GI50 [1]: 2.83 µM | TGI [1]: > 100 µM | GI50 [2]: 0.142 µM | TGI [2]: 1.03 µM | GI50 [3]: 0.336 µM | TGI [3]: 1.87 µM | GI50 [4]: 0.514 µM | TGI [4]: 1.84 µM | GI50 [5]: 0.313 µM | TGI [5]: 1.85 µM | GI50 [6]: 0.901 µM | TGI [6]: 4.39 µM | GI50 [7]: 0.936 µM | TGI [7]: > 100 µM | GI50 [8]: 0.0883 µM | TGI [8]: 1.08 µM | GI50 [9]: 0.157 µM | TGI [9]: 0.598 µM | GI50 [10]: 0.261 µM | TGI [10]: 4.34 µM

Oc1ccc(-c2nc3ccccc3s2)cc1CN(Cc1ccccn1)Cc1ccccn1
GI50 [1]: 0.52 µM | TGI [1]: 13.4 µM | GI50 [2]: 1.21 µM | TGI [2]: 10.7 µM | GI50 [3]: 1.3 µM | TGI [3]: 13.7 µM | GI50 [4]: 0.313 µM | TGI [4]: 3.36 µM | GI50 [5]: 2.5 µM | TGI [5]: 9.69 µM | GI50 [6]: 0.21 µM | TGI [6]: 3.5 µM | GI50 [7]: 1.51 µM | TGI [7]: 20.8 µM | GI50 [8]: 2.35 µM | TGI [8]: 15.3 µM | GI50 [9]: 2.66 µM | TGI [9]: 18.6 µM | GI50 [10]: 3.23 µM | TGI [10]: 17 µM

Cc1nc(-c2cn3c(n2)-c2ccc(-c4cnn(C(C)(C)C(N)=O)c4)cc2OCC3)n(C(C)C)n1
GI50 [1]: 3.38 µM and 5.87 µM | TGI [1]: 75.9 µM and > 10 µM | GI50 [2]: 0.279 µM and 0.74 µM | TGI [2]: 17.7 µM and > 10 µM | GI50 [3]: 6.44 µM and 4.11 µM | TGI [3]: 35.9 µM and > 10 µM | GI50 [4]: 1 µM and 1.2 µM | TGI [4]: > 100 µM | GI50 [5]: 4.25 µM and 4.74 µM | TGI [5]: 24.2 µM and > 10 µM | GI50 [6]: 3.98 µM and 2.87 µM | TGI [6]: 97.4 µM and > 10 µM | GI50 [7]: 1.92 µM and 2.47 µM | TGI [7]: > 100 µM | GI50 [8]: 0.535 µM and 0.414 µM | TGI [8]: > 38.3 µM | GI50 [9]: 0.143 µM and 0.274 µM | TGI [9]: 1.15 µM and 1.67 µM | GI50 [10]: 0.895 µM and 0.295 µM | TGI [10]: 17.2 µM and > 10 µM

C#CCSc1cc(Cl)c(C)cc1S(=O)(=O)Nc1nc2ccccc2o1
GI50 [1]: 40.4 µM | TGI [1]: > 100 µM | GI50 [2]: 36 µM | TGI [2]: > 100 µM | GI50 [3]: 46.8 µM | TGI [3]: > 100 µM | GI50 [4]: 26.3 µM | TGI [4]: 67.9 µM | GI50 [5]: 21.6 µM | TGI [5]: 43.6 µM | GI50 [6]: 57 µM | TGI [6]: > 100 µM | GI50 [7]: 44.5 µM | TGI [7]: > 100 µM | GI50 [8]: 54.7 µM | TGI [8]: > 100 µM | GI50 [9]: 33.4 µM | TGI [9]: 87.1 µM | GI50 [10]: 22.5 µM | TGI [10]: 48.3 µM

O=c1cc(-c2cccc3c2Sc2ccccc2S3)oc(N2CCOCC2)c1
GI50 [1]: 12.9 µM | TGI [1]: 45.7 µM | GI50 [2]: 11.4 µM | TGI [2]: 37.4 µM | GI50 [3]: 11.8 µM | TGI [3]: 29.5 µM | GI50 [4]: 5.3 µM | TGI [4]: 18.9 µM | GI50 [5]: 5.71 µM | TGI [5]: 19.3 µM | GI50 [6]: 10.8 µM | TGI [6]: 34.3 µM | GI50 [7]: 13.9 µM | TGI [7]: 33.6 µM | GI50 [8]: 11.1 µM | TGI [8]: 24.1 µM | GI50 [9]: 0.323 µM | TGI [9]: 3.79 µM | GI50 [10]: 11.6 µM | TGI [10]: 25.8 µM

CS(=O)(=O)CCc1cccc(C(=O)c2cnn(-c3ccc(F)cc3)c2N)c1
GI50 [1]: > 25 µM | TGI [1]: > 25 µM | GI50 [2]: > 25 µM | TGI [2]: > 25 µM | GI50 [3]: > 25 µM | TGI [3]: > 25 µM | GI50 [4]: > 25 µM | TGI [4]: > 25 µM | GI50 [5]: > 25 µM | TGI [5]: > 25 µM | GI50 [6]: > 25 µM | TGI [6]: > 25 µM | GI50 [7]: > 25 µM | TGI [7]: > 25 µM | GI50 [8]: > 25 µM | TGI [8]: > 25 µM | GI50 [9]: > 25 µM | TGI [9]: > 25 µM | GI50 [10]: > 25 µM | TGI [10]: > 25 µM

Cc1csc(/C=C/C(=O)c2nnn(-c3ccnc4c(C(F)(F)F)cccc34)c2C)c1
GI50 [1]: > 100 µM | TGI [1]: > 100 µM | GI50 [2]: 49.1 µM | TGI [2]: > 100 µM | GI50 [3]: 29.2 µM | TGI [3]: > 100 µM | GI50 [4]: 42.4 µM | TGI [4]: > 100 µM | GI50 [5]: > 100 µM | TGI [5]: > 100 µM | GI50 [6]: 53.8 µM | TGI [6]: > 100 µM | GI50 [7]: 72.8 µM | TGI [7]: > 100 µM | GI50 [8]: 71.1 µM | TGI [8]: > 100 µM | GI50 [9]: > 100 µM | TGI [9]: > 100 µM | GI50 [10]: 43.7 µM | TGI [10]: > 100 µM

COc1cccc(NC(=O)c2sc3nc(C)c(C(O)c4ccccc4)cc3c2N)c1 (stereo not given)
GI50 [1]: 0.469 µM | TGI [1]: > 66.7 µM | GI50 [2]: 0.264 µM | TGI [2]: 18.6 µM | GI50 [3]: 0.345 µM | TGI [3]: 33.5 µM | GI50 [4]: 0.347 µM | TGI [4]: 18 µM | GI50 [5]: 0.96 µM | TGI [5]: 29.7 µM | GI50 [6]: 2.03 µM | TGI [6]: 23.7 µM | GI50 [7]: 0.467 µM | TGI [7]: 74.6 µM | GI50 [8]: 3.65 µM | TGI [8]: 35.3 µM | GI50 [9]: 0.0971 µM | TGI [9]: 0.615 µM | GI50 [10]: 0.359 µM | TGI [10]: 4.05 µM
